Test results published in PMC3676484 (Journal of medicinal chemistry, 2013).

Columns and labels:
[1] = tested on: GST-HIF-2α PAS-B* and ARNT PAS-B*-FLAG domains (HIF-2α–ARNT heterodimerization); test: AlphaScreen luminescence proximity assay of HIF-2α–ARNT PAS-B heterodimerization; settings: for IC50: read-out: AlphaScreen IC50, disruption of HIF-2α PAS-B*–ARNT PAS-B* heterodimer; for AlphaScreen activity (in words): disruption of HIF-2α–ARNT heterodimerization
[2] = biological target: HIF-2α PAS-B domain (Homo sapiens, UniProt Q99814); test: Isothermal titration calorimetry; type: binding; settings: for weakening of binding relative to compound 32: ITC data, compared with 32
[3] = Solubility observation; type: physicochemical

Sequence of HIF-2α PAS-B domain (Q99814 240-350 limits assumed): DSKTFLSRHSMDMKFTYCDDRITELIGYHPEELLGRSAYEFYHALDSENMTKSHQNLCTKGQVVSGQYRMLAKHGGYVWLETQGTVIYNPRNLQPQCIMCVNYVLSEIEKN

SMILES	IC50 [1] [µM]	also measured
Cc1ccc(CNc2ccc3nonc3c2[N+](=O)[O-])cc1 [Compound 4]	> 30	–
O=[N+]([O-])c1c(NCc2c(F)cccc2Cl)ccc2nonc12 [Compound 7]	> 30	–
O=[N+]([O-])c1c(NCc2cc(F)ccc2C(F)(F)F)ccc2nonc12 [Compound 11]	> 30	–
COc1cccc(Nc2ccc3nonc3c2[N+](=O)[O-])c1 [Compound 16]	> 30	–
O=[N+]([O-])c1c(Nc2ccc(F)cc2)ccc2nonc12 [Compound 17]	> 30	–
O=[N+]([O-])c1c(Nc2ccc(Cl)cc2)ccc2nonc12 [Compound 18]	> 30	–
O=[N+]([O-])c1c(Nc2cccc(Cl)c2)ccc2nonc12 [Compound 19]	–	weakening of binding relative to compound 32 [2]: two fold reduction in affinity
O=[N+]([O-])c1c(Nc2ccc(Br)cc2)ccc2nonc12 [Compound 20]	> 30	–
O=[N+]([O-])c1c(Nc2cccc(F)c2)ccc2nonc12 [Compound 23]	–	weakening of binding relative to compound 32 [2]: 25 fold
O=[N+]([O-])c1c(Nc2ccc(C(F)(F)F)cc2Cl)ccc2nonc12 [Compound 24]	> 30	–
O=[N+]([O-])c1c(Nc2cc(F)cc(F)c2)ccc2nonc12 [Compound 30]	–	weakening of binding relative to compound 32 [2]: 8 fold
Fc1cc(Cl)cc(Nc2ccc3nonc3c2)c1 [Compound 46]	–	solubility (in words) [3]: relatively insoluble; AlphaScreen activity (in words) [1]: weak activity
Nc1c(Nc2cc(F)cc(Cl)c2)ccc2nonc12 [Compound 47]	–	solubility (in words) [3]: relatively insoluble; AlphaScreen activity (in words) [1]: weak activity; worsening of binding and disruption relative to compound 32 ([2]; binding and disruption, NO2 replaced by NH2, compared with 32): 30–60 fold
CC(=O)Nc1c(Nc2cc(F)cc(Cl)c2)ccc2nonc12 [Compound 48]	> 30	–
O=C(CCl)Nc1c(Nc2cc(F)cc(Cl)c2)ccc2nonc12 [Compound 49]	> 30	–
O=C1C=CC(=O)N1c1c(Nc2cc(F)cc(Cl)c2)ccc2nonc12 [Compound 50]	> 30	–
CNS(=O)(=O)c1c(Nc2cc(F)cc(Cl)c2)ccc2nonc12 [Compound 54]	> 30	AlphaScreen activity (in words) [1]: inactive as disruptors
CN(C)S(=O)(=O)c1c(Nc2cc(F)cc(Cl)c2)ccc2nonc12 [Compound 55]	–	AlphaScreen activity (in words) [1]: inactive as disruptors
